In article PMC9926234, “Iterative computational design and crystallographic screening identifies potent inhibitors targeting the Nsp3 macrodomain of SARS-CoV-2” (Proceedings of the National Academy of Sciences of the …, 2023):

These compounds were tested against SARS-CoV-2 NSP3 Mac1 (Severe acute respiratory syndrome coronavirus 2, UniProt P0DTD1). Conditions: DSF dose responsiveness, 1 µM nsp3 mac1; adj p given.
Assay type: binding
Design: contains a conserved macrodomain enzyme (Mac1)
Experimental: DSF and associated compound handling was performed as described ([12]), with 5 µM dye “Fluorescent Yellow” (Jacquard iDye Cat #JID1405) used in place of SYPRO Orange. Compounds were tested in triplicate, at seven concentrations in two-fold serial dilutions, at a top concentration of either 1,000 or 100 μM. To minimize experimental noise arising from plate location-based effects on Tma, all concentrations and replicates for each compound were tested within a single region of the microtiter plates, including a DMSO-only control from which ΔTmas were calculated for that compound. […] For each compound, to determine statistical significance of the dose responsive thermal shift, the Spearman’s coefficient was calculated between compound concentration and ΔTma.

Row | SMILES | Spearman est (compound concentration vs apparent Tm)
1 | CC(C)c1noc(CCc2nc(-c3ccnc4[nH]ccc34)no2)n1 [ZINC000351161347] | −0.81
2 | COC(=O)C1Cc2c(O)cccc2C1NC(=O)c1ccc(NC(=O)NC2CC2)cc1 (stereo not drawn) [8539_0076] | −0.19
3 | Nc1cc(-c2noc(CCn3cccn3)n2)ncn1 [ZINC000820965086] | 0.58
4 | O=C(c1cccc(O)c1)N1CC=C(c2ccccc2)C1 [ZINC000336444141] | 0.55
5 | Nc1ncnc(SCCc2cccc(Cl)c2Cl)n1 [ZINC001641481086] | 0.6
6 | Cc1n[nH]c2ncc(CN3CC(C)Oc4c(F)cccc43)cc12 (stereo not drawn) [ZINC000361138637] | 0.07
7 | Cc1cc(-n2cncn2)ccc1C(=O)OCC1OCCc2ccccc21 (stereo not drawn) [ZINC000745413896] | 0.55
8 | O=c1[nH]nc(C2CCCN(c3ncnc4[nH]c(Cl)cc34)C2)o1 (stereo not drawn) [ZINC001559178387] | −0.22
9 | CC1C(=O)CCCN1C(=O)c1ccnc2[nH]cnc12 (stereo not drawn) [ZINC000885048835] | 0.23
10 | O=C1CCCN1Cc1cccc(N2C(=O)N[C@@H](CO)C2=O)c1 [ZINC001320848619] | 0.18
11 | Clc1cc2c(N3CCCC(c4cccnc4)C3)ncnc2[nH]1 (stereo not drawn) [ZINC000866018680] | 0.2
12 | Cc1cc(C)nc(CSc2nnc3c(=O)[nH]c4ccccc4n23)c1 [ZINC001652467570] | 0.44
13 | N#Cc1cccc(-n2ccc(C(=O)OCc3cccnc3)n2)c1 [ZINC000798346395] | 0.61
14 | CC(C(=O)N1CC(C(N)=O)C1)n1cnc2c(N)ncnc21 (stereo not drawn) [ZINC001434309614] | 0.08
15 | O=C(O)CC1Cc2ccccc2N1C(=O)c1ccc(NC(=O)NC2CC2)cc1 (stereo not drawn) [8539_0039] | 0.09
16 | CN(c1cc(NC2CC2)ncn1)C1CCCN(c2cccnn2)C1 (stereo not drawn) [ZINC000413143167] | −0.41
17 | CN(Cc1nnc2c(=O)[nH]ccn12)c1cc(Cl)nc(C2CC2)n1 [ZINC000882897766] | −0.19
18 | CCc1noc(C(C)OC(=O)c2cccc3[nH]c(=O)oc23)n1 (stereo not drawn) [ZINC000751938095] | −0.41
19 | OCc1cn(C2CCCN(c3ncnc4[nH]ccc34)C2)nn1 (stereo not drawn) [ZINC000292637864] | 0.65
20 | O=C1CSc2cc(C(=O)OC3c4ccccc4CC3F)ccc2N1 (stereo not drawn) [Z4718398554] | −0.18
21 | O=C(c1ncnc2[nH]ccc12)N1CC(n2cncn2)C1 [ZINC001327823432] | 0.54

Row | SMILES | Spearman est (compound concentration vs apparent Tm)
22 | O=C(COC(=O)c1ccc2nsnc2c1)c1ccccc1 [ZINC000779122380] | 0.81
23 | CN(Cc1nnc2c(=O)[nH]ccn12)c1nccc(C(F)(F)F)n1 [ZINC000882897665] | 0.38
24 | COc1ccc(Cl)cc1Cn1cnc2c(N)ncnc21 [ZINC000110510953] | 0.55
25 | Cc1oc(-c2cccs2)nc1Cc1nc(-c2cncnc2N)no1 [ZINC000350813789] | 0.74
26 | NC(=O)c1ccc(Cc2noc(CCc3ccoc3)n2)cc1 [ZINC000546336511] | −0.79
27 | c1ccc2c(-c3noc(CCCc4nc(C5CC5)no4)n3)n[nH]c2c1 [ZINC000356759652] | 0.72
28 | NC(=O)C1CCCN(c2ncnc3[nH]c4cc(F)ccc4c23)C1 (stereo not drawn) [LL1_0016] | 0.18
29 | Cc1ccc(-c2noc(C3CC(=O)N(c4cn[nH]c4)C3)n2)cc1 (stereo not drawn) [ZINC000189176019] | −0.48
30 | CNc1ccc(C(=O)N2CC(C(=O)O)CC2(C)C)cn1 (stereo not drawn) [REAL250001652488] | 0.12
31 | Nc1nc(N)c2ncn(C3CN(C(=O)Cc4cccnc4)C3)c2n1 [ZINC001156036512] | 0.06
32 | O=C(c1ncnc2[nH]ccc12)N1CC(n2ccnn2)C1 [ZINC001335091110] | −0.36
33 | Cc1nc(Cn2cnc3c(N)nc(N)nc32)cs1 [Z4718398569] | 0.06
34 | O=C(Nc1cccnc1)Nc1ccc2ccccc2n1 [Z4718398614] | −0.43
35 | CNc1cc(-c2noc(CN3CCCC3=O)n2)ncn1 [ZINC000904236028] | −0.56
36 | c1ccc(-c2n[nH]c(Cc3noc([C@@H]4CCCO4)n3)n2)cc1 [ZINC000273900063] | −0.02
37 | NC(=O)c1ccc(CCSc2cccc(F)c2)cc1 [ZINC001165768885] | −0.73
38 | Cc1csc(=Nc2ccccc2)n1Cc1nnc2n1CCNC2=O [ZINC000881775356] | 0.59
39 | CC1CCc2n[nH]cc2C1C(=O)N(C)OCc1ccccc1 (stereo not drawn) [ZINC000879258074] | 0.45
40 | CC(C(=O)N1CCCC1c1nc(C(N)=O)no1)c1cccc(F)c1 (stereo not drawn) [ZINC000373034135] | 0.29
41 | Cc1ccc(NS(=O)(=O)c2ccc(C(F)(F)F)cn2)c(O)n1 [ZINC000359659274] | 0.61
42 | Cc1nc2c(C(=O)OCc3ccnc(N(C)C)c3)ccnc2[nH]1 [ZINC000924094620] | 0.62

Same assay, conditions: maximal thermal upshift

Row | SMILES | DSF max dTma
43 | COC(=O)C1Cc2c(O)cccc2C1NC(=O)c1ccc(NC(=O)NC2CC2)cc1 (stereo not drawn) [8539_0076] | 0 ˚C
44 | CC1C(=O)CCCN1C(=O)c1ccnc2[nH]cnc12 (stereo not drawn) [ZINC000885048835] | 0.16 ˚C
45 | O=C1CCCN1Cc1cccc(N2C(=O)N[C@@H](CO)C2=O)c1 [ZINC001320848619] | 0.2 ˚C
46 | CC(C(=O)N1CC(C(N)=O)C1)n1cnc2c(N)ncnc21 (stereo not drawn) [ZINC001434309614] | 0.26 ˚C
47 | O=C(O)CC1Cc2ccccc2N1C(=O)c1ccc(NC(=O)NC2CC2)cc1 (stereo not drawn) [8539_0039] | 2.09 ˚C
48 | CCc1noc(C(C)OC(=O)c2cccc3[nH]c(=O)oc23)n1 (stereo not drawn) [ZINC000751938095] | 0.13 ˚C
49 | O=C(c1ncnc2[nH]ccc12)N1CC(n2cncn2)C1 [ZINC001327823432] | 0.66 ˚C
50 | NC(=O)C1CCCN(c2ncnc3[nH]c4cc(F)ccc4c23)C1 (stereo not drawn) [LL1_0016] | 0.6 ˚C
51 | CNc1ccc(C(=O)N2CC(C(=O)O)CC2(C)C)cn1 (stereo not drawn) [REAL250001652488] | 0.21 ˚C
52 | Nc1nc(N)c2ncn(C3CN(C(=O)Cc4cccnc4)C3)c2n1 [ZINC001156036512] | 0.61 ˚C
53 | O=C(c1ncnc2[nH]ccc12)N1CC(n2ccnn2)C1 [ZINC001335091110] | 0.04 ˚C
54 | c1ccc(-c2n[nH]c(Cc3noc([C@@H]4CCCO4)n3)n2)cc1 [ZINC000273900063] | 0.03 ˚C
55 | Cc1ccc(NS(=O)(=O)c2ccc(C(F)(F)F)cn2)c(O)n1 [ZINC000359659274] | 0.65 ˚C

Same assay, conditions: maximal thermal upshift vs DMSO control

Row | SMILES | DSF max dTma [°C]
56 | O=C(c1c(F)ccc(O)c1F)N1CCC(Oc2cccc(F)c2)C1 (stereo not drawn) [Z5547] | 0.07
57 | CC1CN(C(=O)CCc2nc(-c3ccncc3)no2)C1c1ccccc1 (stereo not drawn) [Z0856] | 0.6
58 | O=c1[nH]nc(C2CCCN(c3ncnc4[nH]c(Cl)cc34)C2)o1 (stereo not drawn) [Z8387] | 1.01
59 | c1ccc2c(c1)N(c1ncnc3[nH]ccc13)CC21CC1 [Z9310] | 0
60 | COc1ccc(-c2nnc(NC(=O)Cc3ncccc3F)s2)cc1 [Z6468] | 0.58
61 | CS(=O)(=O)C1CCCCN(c2ncnc3[nH]c4ccccc4c23)C1 (stereo not drawn) [Z8648] | 0.24
62 | O=C1CSc2cc(C(=O)OC3c4ccccc4CC3F)ccc2N1 (stereo not drawn) [Z8554] | 0.13
63 | CS(=O)(=O)C1CCCN(c2ncnc3[nH]c(Cl)cc23)C1 (stereo not drawn) [Z9550] | 0.64
64 | O=C(NCc1nc2ccccc2c(=O)[nH]1)Nc1cccnc1 [Z8598] | 0.22
65 | CC1CCc2n[nH]cc2C1C(=O)N(C)OCc1ccccc1 (stereo not drawn) [Z8074] | 0.54
66 | CN(Cc1nnc2c(=O)[nH]ccn12)c1nccc(C(F)(F)F)n1 [Z7665] | 0.55
67 | Cc1nc2c(C(=O)OCc3ccnc(N(C)C)c3)ccnc2[nH]1 [Z4620] | 1.08
68 | Cc1ccc(CC(=O)OCc2noc(C3CC3)n2)cc1O [Z2995] | 0.32
69 | Cc1ccccc1CC(C)c1nc(-c2cc(N)ncn2)no1 (stereo not drawn) [Z4066] | 0.98
70 | Fc1ccc(F)c(Sc2ncnc3[nH]ccc23)c1 [Z5289] | 1.24
71 | CN(Cc1cccc(O)c1)C(=O)Cc1ccncc1 [Z1186] | 0.19
72 | O=C(c1cccc(O)c1)N1CCC(Nc2ccccc2)C1 (stereo not drawn) [Z4508] | 0.37
73 | CC(C)c1noc(CCc2nc(-c3ccnc4[nH]ccc34)no2)n1 [Z1347] | 0
74 | O=C(Nc1cccnc1)Nc1nc2ccccc2c(=O)[nH]1 [Z8593] | 0
75 | Cc1ccccc1CNc1ncnc(-c2ccccc2)n1 [Z1635] | 0.85
76 | Cc1ccc(C(=O)N2CC[C@H](Oc3ccccc3)C2)cc1O [Z2024] | 0.36
77 | Nc1ncnc2c1ncn2CCCc1ccsc1 [Z5972] | 0.51
78 | Nc1ncnc(SCCc2cccc(Cl)c2Cl)n1 [Z1086] | 0.21
79 | Cc1nc(Cc2noc(Cc3ccc4[nH]ncc4c3)n2)no1 [Z5262] | 0.45
80 | Cc1csc(=Nc2ccccc2)n1Cc1nnc2n1CCNC2=O [Z5356] | 0.51
81 | CC(c1ccc(Cl)c(Cl)c1)S(=O)(=O)Cc1cn[nH]c1 (stereo not drawn) [Z5728] | 0
